In US9795140B2, “Molecules having pesticidal utility, and intermediates, compositions, and processes, related thereto” (priority 2015, dated 2017):

What was measured:
Assay type in all cases: in vivo
[1] = tested on: Beet Armyworm (Spodoptera exigua, LAPHEG); assay: Bioassay on Beet Armyworm (BAW), 128-well diet tray assay; conditions: 168 h, 50 μg/cm^2 on artificial diet, second instar larvae, 25° C., five to seven days, average of eight wells, read-out: BAW % Control (or Mortality) rating
Method in brief: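 Second-instar larvae, one to five per well, placed on artificial diet surface-treated with 50 μg/cm^2 compound applied in 90:10 acetone-water and dried. Held 5–7 days at 25° C., 14:10 light-dark. Percent mortality recorded per well and averaged over eight wells.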

[2] = tested on: Yellow Fever Mosquito (Aedes aegypti, AEDSAE); assay: Bioassay on Yellow Fever Mosquito (YFM) larvae, 96-well plate; conditions: about 1 day-old larvae, room temperature, 3 days, scored on mortality
Method in brief: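 Each well was scored for mortality after 3 days at room temperature under a non-evaporative lid. Test molecules came from DMSO masters (4000 ppm stock) diluted with water/acetone 90:10 and dispensed into six replicate plates, which were then infested with roughly 1-day-old larvae in liver-powder water.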

[3] = tested on: Cabbage Looper (Trichoplusia ni, TRIPNI); assay: Bioassay on Cabbage Looper (CL), 128-well diet tray assay; conditions: 168 h, 50 μg/cm^2 on artificial diet, second instar larvae, 25° C., five to seven days, average of eight wells, read-out: CL % Control (or Mortality) rating
Method in brief: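 Second-instar T. ni larvae (one to five per well) were placed on artificial diet treated with 50 μg/cm^2 compound, applied in 90:10 acetone-water and dried. Trays were held five to seven days at 25 °C under 14:10 light-dark. Percent mortality per well was averaged over eight wells.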

[4] = tested on: Green Peach Aphid (Myzus persicae, MYZUPE); assay: Bioassay on Green Peach Aphid (GPA), foliar spray on cabbage seedlings; conditions: 72 h, 200 ppm spray on infested cabbage seedlings, three days, Abbott corrected % control, read-out: GPA % Control (or Mortality) rating
Method: Certain molecules disclosed in this document were tested against GPA using procedures described in the following example. In the reporting of the results, the “GPA & YFM Rating Table” was used (See Table Section).
Cabbage seedlings grown in 3-inch pots, with 2-3 small (3-5 cm) true leaves, were used as test substrate. The seedlings were infested with 20-50 GPA (wingless adult and nymph stages) one day prior to chemical application. Four pots with individual seedlings were used for each treatment. Test molecules (2 mg) were dissolved in 2 mL of acetone/methanol (1:1) solvent, forming stock solutions of 1000 ppm test molecule. The stock solutions were diluted 5× with 0.025% Tween 20 in water to obtain the solution at 200 ppm test molecule. A hand-held aspirator-type sprayer was used for spraying a solution to both sides of […] leaves until runoff. Reference plants (solvent check) were sprayed with the diluent only containing 20% by volume of acetone/methanol (1:1) solvent. Treated plants were held in a holding room for three days at approximately 25° C. and ambient relative humidity (RH) prior to grading. Evaluation was conducted by counting the number of live aphids per plant under a microscope. Percent control was measured using Abbott's correction formula (W. S. Abbott, “A Method of Computing the Effectiveness of an Insecticide” J. Econ. Entomol. 18 (1925), pp. 265-267) as follows. Corrected % Control=100*(X−Y)/X where X=No. of live aphids on solvent check plants and Y=No. of live aphids on treated plants. The results are indicated in the table entitled “Table ABC: Biological Results” (See Table Section).

CN(CC(F)(F)F)C(=O)c1cc(NC(=O)[C@H]2[C@H](c3cc(Cl)cc(Cl)c3)C2(Cl)Cl)ccc1Cl (relative stereo) [F59, trans-2-Chloro-5-(2,2-dichloro-3-(3,5-dichlorophenyl)cyclopropane-1-carboxamido)-N-methyl-N-(2,2,2-trifluoroethyl)benzamide]
mortality at 50 µg/cm2 [1]: 50 to 100% | YFM % Control (or Mortality) rating [2]: A (80-100) | mortality at 50 µg/cm2 [3]: 50 to 100% | mortality at 200 ppm [4]: 0 to 80%

CC(=O)NCCNC(=O)c1cc(NC(=O)[C@H]2[C@H](c3cc(Cl)cc(Cl)c3)C2(Cl)Cl)ccc1Cl (relative stereo) [F55, trans-N-(2-Acetamidoethyl)-2-chloro-5-(2,2-dichloro-3-(3,5-dichlorophenyl)cyclopropane-1-carboxamido)benzamide]
mortality at 50 µg/cm2 [1]: 50 to 100% | YFM % Control (or Mortality) rating [2]: B (More than 0-Less than 80) | mortality at 50 µg/cm2 [3]: 50 to 100% | mortality at 200 ppm [4]: 80 to 100%

O=C(NCCc1ccc(F)cc1)c1cc(NC(=O)C2C(c3cc(Cl)cc(Cl)c3)C2(Cl)Cl)ccc1Cl (stereo not drawn) [F19, trans-N-2-Chloro-5-(2,2-dichloro-3-(3,5-dichlorophenyl)cyclopropane-1-carboxamido)-N-(4-fluorophenethyl)benzamide]
mortality at 50 µg/cm2 [1]: 50 to 100% | YFM % Control (or Mortality) rating [2]: A (80-100) | mortality at 50 µg/cm2 [3]: 50 to 100% | mortality at 200 ppm [4]: 0 to 80%

O=C(NOCc1ccc(F)cc1)c1cc(NC(=O)C2C(c3cc(Cl)c(Cl)c(Cl)c3)C2(Cl)Cl)ccc1Cl (stereo not drawn) [F18, trans-N-2-Chloro-5-(2,2-dichloro-3-(3,4,5-trichlorophenyl)cyclopropane-1-carboxamido)-N-((4-fluorobenzyl)oxy)benzamide]
mortality at 50 µg/cm2 [1]: 50 to 100% | mortality at 50 µg/cm2 [3]: 50 to 100% | mortality at 200 ppm [4]: 0 to 80%

CCCCCNC(=O)c1cc(NC(=O)[C@H]2[C@H](c3cc(Cl)cc(Cl)c3)C2(Cl)Cl)ccc1Cl (relative stereo) [F33, trans-2-Chloro-5-(2,2-dichloro-3-(3,5-dichlorophenyl)cyclopropane-1-carboxamido)-N-pentylbenzamide]
mortality at 50 µg/cm2 [1]: 50 to 100% | YFM % Control (or Mortality) rating [2]: A (80-100) | mortality at 50 µg/cm2 [3]: 50 to 100% | mortality at 200 ppm [4]: 0 to 80%

O=C(NCc1ccc(F)cc1)c1cc(NC(=O)[C@H]2[C@H](c3cc(Cl)cc(Cl)c3)C2(Cl)Cl)ccc1Cl (relative stereo) [F28, trans-2-Chloro-5-(2,2-dichloro-3-(3,5-dichlorophenyl)cyclopropane-1-carboxamido)-N-(4-fluorobenzyl)benzamide]
mortality at 50 µg/cm2 [1]: 50 to 100% | YFM % Control (or Mortality) rating [2]: A (80-100) | mortality at 50 µg/cm2 [3]: 50 to 100% | mortality at 200 ppm [4]: 80 to 100%

O=C(NCC(F)(F)C(F)(F)F)c1cc(NC(=O)[C@H]2[C@H](c3cc(Cl)cc(Cl)c3)C2(Cl)Cl)ccc1Cl (relative stereo) [F49, trans-2-Chloro-5-(2,2-dichloro-3-(3,5-dichlorophenyl)cyclopropane-1-carboxamido)-N-(2,2,3,3,3-pentafluoropropyl)benzamide]
mortality at 50 µg/cm2 [1]: 50 to 100% | YFM % Control (or Mortality) rating [2]: A (80-100) | mortality at 50 µg/cm2 [3]: 50 to 100% | mortality at 200 ppm [4]: 80 to 100%

N#CCCCNC(=O)c1cc(NC(=O)[C@H]2[C@H](c3cc(Cl)cc(Cl)c3)C2(Cl)Cl)ccc1Cl (relative stereo) [F38, trans-2-Chloro-N-(3-cyanopropyl)-5-(2,2-dichloro-3-(3,5-dichlorophenyl)cyclopropane-1-carboxamido)benzamide]
mortality at 50 µg/cm2 [1]: 50 to 100% | YFM % Control (or Mortality) rating [2]: A (80-100) | mortality at 50 µg/cm2 [3]: 50 to 100% | mortality at 200 ppm [4]: 80 to 100%

O=C(NCc1ccncc1)c1cc(NC(=O)[C@H]2[C@H](c3cc(Cl)c(Cl)c(Cl)c3)C2(Cl)Cl)ccc1Cl (relative stereo) [F13, trans-2-Chloro-5-(2,2-dichloro-3-(3,4,5-trichlorophenyl)cyclopropane-1-carboxamido)-N-(pyridin-4-ylmethyl)benzamide]
mortality at 50 µg/cm2 [1]: 50 to 100% | YFM % Control (or Mortality) rating [2]: A (80-100) | mortality at 50 µg/cm2 [3]: 50 to 100% | mortality at 200 ppm [4]: 0 to 80%

O=C(NOCC1CC1(F)F)c1cc(NC(=O)C2C(c3ccc(Cl)c(Cl)c3)C2(Cl)Cl)ccc1Cl (stereo not drawn) [F22, trans-N-2-Chloro-5-(2,2-dichloro-3-(3,4-dichlorophenyl)cyclopropane-1-carboxamido)-N-((2,2-difluorocyclopropyl)methoxy)benzamide]
mortality at 50 µg/cm2 [1]: 50 to 100% | YFM % Control (or Mortality) rating [2]: B (More than 0-Less than 80) | mortality at 50 µg/cm2 [3]: 50 to 100% | mortality at 200 ppm [4]: 80 to 100%

O=C(NCC(F)F)c1cc(NC(=O)[C@H]2[C@H](c3cc(Cl)cc(Cl)c3)C2(Cl)Cl)ccc1Cl (relative stereo) [F48, trans-2-Chloro-5-(2,2-dichloro-3-(3,5-dichlorophenyl)cyclopropane-1-carboxamido)-N-(2,2-difluoroethyl)benzamide]
mortality at 50 µg/cm2 [1]: 50 to 100% | YFM % Control (or Mortality) rating [2]: B (More than 0-Less than 80) | mortality at 50 µg/cm2 [3]: 50 to 100% | mortality at 200 ppm [4]: 80 to 100%

CCCCCCNC(=O)c1cc(NC(=O)[C@H]2[C@H](c3cc(Cl)cc(Cl)c3)C2(Cl)Cl)ccc1Cl (relative stereo) [F31, trans-2-Chloro-5-(2,2-dichloro-3-(3,5-dichlorophenyl)cyclopropane-1-carboxamido)-N-hexylbenzamide]
mortality at 50 µg/cm2 [1]: 50 to 100% | YFM % Control (or Mortality) rating [2]: B (More than 0-Less than 80) | mortality at 50 µg/cm2 [3]: 50 to 100% | mortality at 200 ppm [4]: 0 to 80%

O=C(NOCc1ccc(F)cc1)c1cc(NC(=O)C2C(c3cc(Cl)cc(Cl)c3)C2(Cl)Cl)ccc1Cl (stereo not drawn) [F17, trans-N-2-Chloro-5-(2,2-dichloro-3-(3,5-dichlorophenyl)cyclopropane-1-carboxamido)-N-((4-fluorobenzyl)oxy)benzamide]
mortality at 50 µg/cm2 [1]: 50 to 100% | YFM % Control (or Mortality) rating [2]: A (80-100) | mortality at 50 µg/cm2 [3]: 50 to 100% | mortality at 200 ppm [4]: 0 to 80%

C=CCONC(=O)c1cc(NC(=O)[C@H]2[C@H](c3ccc(Cl)c(Cl)c3)C2(Cl)Cl)ccc1Cl (relative stereo) [F14, trans-N-(Allyloxy)-2-chloro-5-(2,2-dichloro-3-(3,4-dichlorophenyl)cyclopropane-1-carboxamido)benzamide]
mortality at 50 µg/cm2 [1]: 50 to 100% | YFM % Control (or Mortality) rating [2]: A (80-100) | mortality at 50 µg/cm2 [3]: 50 to 100% | mortality at 200 ppm [4]: 0 to 80%

CC(C)(C)c1ccc(CNC(=O)c2cc(NC(=O)C3C(c4cc(Cl)cc(Cl)c4)C3(Cl)Cl)ccc2Cl)cc1 (stereo not drawn) [F36, trans-N-(4-(tert-Butylbenzyl)-2-chloro-5-(2,2-dichloro-3-(3,5-dichlorophenyl)cyclopropane-1-carboxamido)benzamide]
mortality at 50 µg/cm2 [1]: 0% | YFM % Control (or Mortality) rating [2]: B (More than 0-Less than 80) | mortality at 50 µg/cm2 [3]: 0% | mortality at 200 ppm [4]: 0%

O=C(NCCOCC1CC1)c1cc(NC(=O)[C@H]2[C@H](c3cc(Cl)cc(Cl)c3)C2(Cl)Cl)ccc1Cl (relative stereo) [F43, trans-2-Chloro-N-(2-(cyclopropylmethoxy)ethyl)-5-(2,2-dichloro-3-(3,5-dichlorophenyl)cyclopropane-1-carboxamido)benzamide]
mortality at 50 µg/cm2 [1]: 50 to 100% | mortality at 50 µg/cm2 [3]: 50 to 100% | mortality at 200 ppm [4]: 80 to 100%

O=C(NCC1CC(F)(F)C1)c1cc(NC(=O)[C@H]2[C@H](c3cc(Cl)cc(Cl)c3)C2(Cl)Cl)ccc1Cl (relative stereo) [F70, trans-2-Chloro-5-(2,2-dichloro-3-(3,5-dichlorophenyl)cyclopropane-1-carboxamido)-N-((3,3-difluorocyclobutyl)methyl)benzamide]
mortality at 50 µg/cm2 [1]: 50 to 100% | YFM % Control (or Mortality) rating [2]: D (No activity noticed in this bioassay) | mortality at 50 µg/cm2 [3]: 50 to 100%

O=C(NCC(F)(F)F)c1cc(NC(=O)C2C(c3cc(F)c(F)c(F)c3)C2(Cl)Cl)ccc1Cl (stereo not drawn) [F126, 2-Chloro-5-trans-(2,2-dichloro-3-(3,4,5-trifluorophenyl)cyclopropane-1-carboxamido)-N-(2,2,2-trifluoroethyl)benzamide]
mortality at 50 µg/cm2 [1]: 50 to 100% | YFM % Control (or Mortality) rating [2]: A (80-100) | mortality at 50 µg/cm2 [3]: 50 to 100%
